Measurements reported in patent US12421249B2, “Inhibitors of APOL1 and methods of using same” (Vertex Pharmaceuticals Incorporated, priority 2020, dated 2025).

Biological target: T1, APOL1 G1 (Homo sapiens, UniProt O14791, I384M/S342G)
T1 sequence (O14791 28-398 S342G/I384M): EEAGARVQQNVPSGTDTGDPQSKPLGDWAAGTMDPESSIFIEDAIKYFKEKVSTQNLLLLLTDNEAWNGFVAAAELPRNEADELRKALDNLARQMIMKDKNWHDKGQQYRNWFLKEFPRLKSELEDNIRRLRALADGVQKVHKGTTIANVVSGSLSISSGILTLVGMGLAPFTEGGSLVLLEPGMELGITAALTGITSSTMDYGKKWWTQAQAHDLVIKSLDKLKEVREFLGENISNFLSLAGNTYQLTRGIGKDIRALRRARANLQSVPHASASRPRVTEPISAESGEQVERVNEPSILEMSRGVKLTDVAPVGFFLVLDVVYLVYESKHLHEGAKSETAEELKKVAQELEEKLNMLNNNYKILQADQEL
Assay: MultiTox-Fluor Multiplex Cytotoxicity Assay in tet-inducible APOL1 G1 T-REx-HEK293 cells (clone G1 DC3.25)
Format: cell-based
Parameters: expressed in transfected cells; host or cells: T-REx HEK293, pAAVS1-Puro-APOL1 G1, clone G1 DC3.25
Conditions: Multi-Tox Assay, APOL1 variant cell line not given; for Emax: read-out: Multi-Tox Assay Max Activity (%); for IC50: IP50 = IC50 for cell proliferation
Procedure: The MultiTox-Fluor Multiplex Cytotoxicity Assay is a single-reagent-addition, homogeneous, fluorescence assay that measures the number of live and dead cells simultaneously in culture wells. The assay measures cell viability and cytotoxicity by detecting two distinct protease activities. The live-cell protease activity is restricted to intact viable cells and is measured using a fluorogenic, cell-permeant peptide glycyl-phenylalanylamino fluorocoumarin (GF-AFC) substrate. The substrate enters intact cells, where it is cleaved to generate a fluorescent signal proportional to the number of living cells. […] A second, cell-impermeant, fluorogenic peptide substrate (bis-AAF-R110 Substrate) is used to measure dead-cell protease that has been released from cells that have lost membrane integrity. A ratio of dead to live cells is used to normalize data.
Briefly, the tet-inducible transgenic APOL1 T-REx-HEK293 cell lines were incubated with 50 ng/mL tet to induce APOL1 in the presence of 3-(2-(4-fluorophenyl)-1H-indol-3-yl)-N-((3S,4R)-4-hydroxy-2-oxopyrrolidin-3-yl)propenamide at […], 0.0045, 0.0015, 0.0005 μM in duplicate for 24 hours in a humidified 37° C. incubator. The MultiTox reagent was added to each well and placed back in the incubator for an additional 30 minutes. The plate was read on the EnVision plate reader. A ratio of dead to live cells was used to normalize, and data was imported, analyzed and fit using Genedata Screener (Basel, Switzerland) software. Data was normalized using percent of control, no tet (100% viability), and 50 ng/mL tet treated (0% viability), and fit using Smart Fit. The reagents, methods, and complete protocol for the MultiTox assay are described below.
Human embryonic kidney (HEK293) cell lines containing a tet-inducible expression system (T-REx™; Invitrogen, Carlsbad, CA) and Adeno-associated virus site 1 pAAVS1-Puro-APOL1 G0 or pAAVS1-Puro-APOL1 G1 or pAAVS1-Puro-APOL1 G2 Clones G0 DC2.13, G1 DC3.25, and G2 DC4.44 were grown in a T-225 flask at ˜90% confluency in cell growth media (DMEM, 10% Tet-free FBS, 2 mM L-glutamine, 100 Units/mL penicillin-streptomycin, 5 μg/mL blasticidin S HCl, 1 μg/mL puromycin dihydrochloride). Cells were washed with DPBS and then trypsinized to dissociate from the flask. Media was used to quench the trypsin, cells were then pelleted at 200 g and resuspended in fresh cell assay media (DMEM, 2% Tet-free FBS, 2 mM L-glutamine, 100 Units/mL penicillin-streptomycin). Cells were counted and diluted to 1.17×10^6 cells/mL. 20 μL of cells (23,400/well) were dispensed to every well of a 384-well Poly-D-Lysine coated plate using the Multidrop dispenser. The plates were then incubated at room temperature for one hour.
Tetracycline is needed to induce APOL1 expression. 1 mg/mL tet stock in water was diluted to 250 ng/mL (5×) in cell assay media. 60 μL of cell assay media (no tet control) was dispensed in columns 1 and 24, and 60 μL of 5× tet was dispensed in 384-PP-round bottom plate in columns 2 to 23 with the Multidrop dispenser.
Assay ready plates from the Global Compound Archive were ordered using template 384_APOL1Cell_DR10n2_50 μM_v3. Compounds were dispensed at 200 nL in DMSO. The final top concentration was 10 μM with a 10 point 3-fold dilution in duplicate in the MultiTox assay.
20 μL were transferred from the 5× tet plate to the ARP and mixed, then 5 μL of 5× tet and the compounds were transferred to the cell plate and mixed using the Bravo. The cell plate was placed in the humidified 37° C. 5% CO2 incubator for 24 hours.
The MultiTox-Fluor Multiplex Cytotoxicity Assay was performed in accordance with the manufacturer's protocol. After cells were incubated with tet and compound for 24 hours, 25 μL of 1× MultiTox reagent was added to each well using the Multidrop dispenser; the plates were placed on a plate shaker (600 rpm) for 2 minutes, then centrifuged briefly and placed back in the 37° C. incubator for 30 minutes. […]

For `COCC1([C@@H]2C[C@]3(C[C@H](C)N2)OCCc2cc(Cl)sc23)CC1` (racemic) [Compound 376], the IC90 was 50 to 500 nM, the Emax was 99% and the IC50 was 50 to 500 nM.
For `C[C@H]1C[C@@]2(C[C@@H](C3(C#N)CC3)N1)OCCc1cc(Cl)sc12` (racemic) [Compound 377], the IC90 was > 500 nM, the Emax was 98% and the IC50 was 50 to 500 nM.
With `C[C@H]1C[C@@]2(C[C@@H](C3(N(C)C)CC3)N1)OCCc1cc(Cl)sc12` (racemic) [Compound 378] the IC90 was 50 to 500 nM, the Emax was 99% and the IC50 was < 50 nM.
In the case of `CCOC(=O)C1CC1[C@@H]1C[C@]2(C[C@H](C)N1)OCCc1cc(Cl)sc12` (stereo in doubt) [Compound 374], the IC90 is reported as 50 to 500 nM, the Emax is reported as 99% and the IC50 is reported as < 50 nM.
In the case of `CCOC(=O)C1CC1[C@@H]1C[C@]2(C[C@H](C)N1)OCCc1cc(Cl)sc12` (stereo in doubt) [Compound 375], the IC90 is reported as 50 to 500 nM and the IC50 is reported as < 50 nM.
`C[C@H]1C[C@@]2(C[C@@H](c3cn(CCO)nn3)N1)OCC(F)(F)c1cc(Cl)sc12` [Compound 361] was tested, and the Emax was 98% and the IC50 was < 50 nM.
Work on `COc1ccc(Cn2cc([C@@H]3C[C@]4(C[C@H](C)N3)OCC(F)(F)c3cc(Cl)sc34)nn2)cc1F` [Compound 362] yielded an Emax of 98%.
For `C[C@H]1C[C@@]2(C[C@@H](c3cn(C[C@@H](O)CO)nn3)N1)OCC(F)(F)c1cc(Cl)sc12` [Compound 363], the Emax was 99% and the IC50 was < 50 nM.
`C[C@H]1C[C@@]2(C[C@@H](c3cn(CC(C)(C)O)nn3)N1)OCC(F)(F)c1cc(Cl)sc12` [Compound 364] gave an Emax of 95%.
In the case of `C[C@H]1C[C@@]2(C[C@@H](c3cn(Cc4cncs4)nn3)N1)OCC(F)(F)c1cc(Cl)sc12` [Compound 365], the Emax is reported as 99% and the IC50 is reported as < 50 nM.
`C[C@H]1C[C@@]2(C[C@@H](c3cn(Cc4ccc5nc(O)[nH]c5c4)nn3)N1)OCC(F)(F)c1cc(Cl)sc12` [Compound 366] showed an Emax of 95%.
For `C[C@H]1C[C@@]2(C[C@@H](c3cn(CCC(C)(C)O)nn3)N1)OCC(F)(F)c1cc(Cl)sc12` [Compound 367], the Emax was 99% and the IC50 was < 50 nM.
Compound `C[C@H]1C[C@@]2(C[C@@H](c3cn(CC4CCC(=O)NC4)nn3)N1)OCC(F)(F)c1cc(Cl)sc12` (some centres unmarked) [Compound 368] has an Emax of 96%.
`C[C@H]1C[C@@]2(C[C@@H](c3cn(CC#N)nn3)N1)OCC(F)(F)c1cc(Cl)sc12` [Compound 369] was tested, and the Emax was 98%.
`CC(CO)Cn1cc([C@@H]2C[C@]3(C[C@H](C)N2)OCC(F)(F)c2cc(Cl)sc23)nn1` (some centres unmarked) [Compound 370] showed an Emax of 99%.
`C[C@H](CO)Cn1cc([C@@H]2C[C@]3(C[C@H](C)N2)OCC(F)(F)c2cc(Cl)sc23)nn1` [Compound 371] was tested, and the IC90 was 50 to 500 nM, the Emax was 99% and the IC50 was < 50 nM.
With `COC(=O)C1([C@@H]2C[C@]3(C[C@H](C)N2)OCCc2cc(Cl)sc23)CC1` [Compound 372, methyl 1-[(2′S, 6′S, 7S)-2-chloro-6′-methyl-spiro[4,5-dihydrothieno[2,3-c]pyran-7,4′-piperidine]-2′-yl]cyclopropanecarboxylate] the Emax was 92% and the IC50 was > 500 nM.
In the case of `C[C@H]1C[C@@]2(C[C@@H](C3(N)CC3)N1)OCCc1cc(Cl)sc12` [Compound 373, 1-[(2′S,6′S,7S)-2-chloro-6′-methyl-spiro[4,5-dihydrothieno[2,3-c]pyran-7,4′-piperidine]-2′-yl]cyclopropanamine], the Emax is reported as 99% and the IC50 is reported as < 50 nM.
For `CC(=O)NC1([C@@H]2C[C@]3(C[C@H](C)N2)OCCc2cc(Cl)sc23)CC1` [Compound 379, N-[1-[(2′S,6′S, 7S)-2-chloro-6′-methyl-spiro[4,5-dihydrothieno[2,3-c]pyran-7,4′-piperidine]-2′-yl]cyclopropyl]acetamide], the Emax was 94% and the IC50 was > 500 nM.
In the case of `C[C@H]1C[C@@]2(C[C@@H](C3(CO)CC3)N1)OCCc1cc(Cl)sc12` [Compound 380, [1-[(2′S,6′S, 7S)-2-chloro-6′-methyl-spiro[4,5-dihydrothieno[2,3-c]pyran-7,4′-piperidine]-2′-yl]cyclopropyl]methanol], the Emax is reported as 99% and the IC50 is reported as < 50 nM.
`Cn1cc([C@@H]2C[C@]3(C[C@H](C4CC4)N2)OCCc2cc(Cl)sc23)nn1` [Compound 381, (2′R,6′S, 7S)-2-chloro-2′-cyclopropyl-6′-(1-methyltriazol-4-yl)spiro[4,5-dihydrothieno[2,3-c]pyran-7,4′-piperidine]] was tested, and the IC50 was < 50 nM.
For `Cn1cc([C@@H]2C[C@]3(C[C@H](C4CC4)N2)OC[C@@H](O)c2cc(Cl)sc23)nn1` [Compound 382, (2′R,4S,6′S, 7S)-2-chloro-2′-cyclopropyl-6′-(1-methyltriazol-4-yl)spiro[4,5-dihydrothieno[2,3-c]pyran-7,4′-piperidine]-4-ol], the IC50 was < 50 nM.
For `Cn1cc([C@@H]2C[C@]3(C[C@H](C4CC4)N2)OCCc2cc(C(F)(F)F)sc23)nn1` [Compound 383, (2′R,6′S,7S)-2′-cyclopropyl-6′-(1-methyltriazol-4-yl)-2-(trifluoromethyl)spiro[4,5-dihydrothieno[2,3-c]pyran-7,4′-piperidine]], the IC50 was < 50 nM.
`C[C@H]1C[C@@]2(C[C@@H](c3cn(C)nn3)N1)OCC(C)(O)c1cc(C(F)(F)F)sc12` (stereo partly drawn) [Compound 384, (2′S,6′S, 7S)-2′,4-dimethyl-6′-(1-methyltriazol-4-yl)-2-(trifluoromethyl)spiro[5H-thieno[2,3-c]pyran-7,4′-piperidine]-4-ol] was tested, and the IC50 was < 50 nM.
With `C[C@H]1C[C@@]2(C[C@@H](c3cn(C)nn3)N1)OC[C@@H](O)c1cc(C(F)(F)F)sc12` [Compound 386, (2S,4S,4′S,6S)-2-methyl-6-(1-(methyl-^13C-d3)-1H-1,2,3-triazol-4-yl)-2′-(trifluoromethyl)-4′,5′-dihydrospiro[piperidine-4,7′-thieno[2,3-c]pyran]-5-^13C-4′-ol] the IC90 was < 50 nM and the IC50 was < 50 nM.
For `Cn1cc([C@@H]2C[C@]3(C[C@H](c4ccccc4)N2)OC[C@@H](O)c2cc(Cl)sc23)nn1` [Compound 387, (2′S,4S,6′R, 7S)-2-chloro-2′-(1-methyltriazol-4-yl)-6′-phenyl-spiro[4,5-dihydrothieno[2,3-c]pyran-7,4′-piperidine]-4-ol], the IC50 was > 500 nM.
With `Cn1cc(C2CC3(CC(C(F)F)N2)OCCc2cc(Cl)sc23)nn1` (centres unmarked) [Compound 388, 2-chloro-2′-(difluoromethyl)-6′-(1-methyltriazol-4-yl)spiro[4,5-dihydrothieno[2,3-c]pyran-7,4′-piperidine]] the IC50 was > 500 nM.
